Reference: the supplement of paper PMC10627819

Columns and labels:
Assay in all cases: Bliss interaction score (quartile over a dose matrix) (fitness difference); higher = more antagonism (negative = synergy)
[1] = tested on: B. subtilis 168
Method in brief: (§1)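 Combination data were used to infer fitness under each single drug. Fitness is the OD595 at entry into stationary phase divided by the robust mean of the plate's no-drug wells, with a cap of 1. The Bliss score is the observed minus the expected product fitness, summarised by quartiles over technical, biological and donor/recipient replicates.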

[2] = tested on: S. aureus DSM 20231
Method in brief: as §1

[3] = tested on: S. aureus Newman
Method in brief: as §1

[4] = tested on: S. pneumoniae D39V
Method in brief: as §1
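Note: first quartile when negative (synergy) and third quartile when positive (antagonism).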

SMILES	Bliss interaction score [1]	Bliss interaction score [2]	Bliss interaction score [3]	Bliss interaction score [4]	Bliss interaction score ([1]; main component drawn)	Bliss interaction score ([2]; main component drawn)	Bliss interaction score ([3]; main component drawn)	Bliss interaction score ([4]; main component drawn)
CC(=O)OC[C@H]1O[C@@H]([S-])[C@H](OC(C)=O)[C@@H](OC(C)=O)[C@@H]1OC(C)=O.CCP(CC)CC.[Au+] [Auranofin] + Cn1nnc(-c2ccc(-c3ccc(N4C[C@H](CO)OC4=O)cc3F)cn2)n1 [Tedizolid]	-0.0317	-0.0334	-0.108	0.0602	–	–	–	–
CC(=O)OC[C@H]1O[C@@H]([S-])[C@H](OC(C)=O)[C@@H](OC(C)=O)[C@@H]1OC(C)=O.CCP(CC)CC.[Au+] [Auranofin] + N[C@@H]1CONC1=O [CycloserineD]	0.0806	-0.0513	0.0247	0.106	–	–	–	–
CC(=O)OC[C@H]1O[C@@H]([S-])[C@H](OC(C)=O)[C@@H](OC(C)=O)[C@@H]1OC(C)=O.CCP(CC)CC.[Au+] [Auranofin] + O=C1CN(/N=C/c2ccc([N+](=O)[O-])o2)C(=O)N1 [Nitrofurantoin]	-0.066	-0.0217	-0.132	-0.421	–	–	–	–
CC(=O)OC[C@H]1O[C@@H]([S-])[C@H](OC(C)=O)[C@@H](OC(C)=O)[C@@H]1OC(C)=O.CCP(CC)CC.[Au+] [Auranofin] + O=C(N[C@H](CO)[C@H](O)c1ccc([N+](=O)[O-])cc1)C(Cl)Cl [Chloramphenicol]	0.0717	0.0319	0.0594	-0.0406	–	–	–	–
CC(=O)OC[C@H]1O[C@@H]([S-])[C@H](OC(C)=O)[C@@H](OC(C)=O)[C@@H]1OC(C)=O.CCP(CC)CC.[Au+] [Auranofin] + O=C(O)[C@H]1/C(=C/CO)O[C@@H]2CC(=O)N21 [Clavulanic]	-0.0681	-0.188	0.167	-0.0729	–	–	–	–
CC(=O)OC[C@H]1O[C@@H]([S-])[C@H](OC(C)=O)[C@@H](OC(C)=O)[C@@H]1OC(C)=O.CCP(CC)CC.[Au+] [Auranofin] + O=C(O)c1cn(C2CC2)c2cc(N3CCNCC3)c(F)cc2c1=O [Ciprofloxacin]	0.0472	0.0217	0.0727	-0.11	–	–	–	–
CC(=O)OC[C@H]1O[C@@H]([S-])[C@H](OC(C)=O)[C@@H](OC(C)=O)[C@@H]1OC(C)=O.CCP(CC)CC.[Au+] [Auranofin] + O=C(O[C@@H]1Cc2c(O)cc(O)cc2O[C@@H]1c1cc(O)c(O)c(O)c1)c1cc(O)c(O)c(O)c1 [EGCG]	0.0518	-0.0255	-0.0511	0.08	–	–	–	–
CC(=O)OC[C@H]1O[C@@H]([S-])[C@H](OC(C)=O)[C@@H](OC(C)=O)[C@@H]1OC(C)=O.CCP(CC)CC.[Au+] [Auranofin] + Oc1cc(Cl)ccc1Oc1ccc(Cl)cc1Cl [Triclosan]	-0.0277	-0.0223	-0.0211	0.106	–	–	–	–
O=C(N[C@H](CO)[C@H](O)c1ccc([N+](=O)[O-])cc1)C(Cl)Cl [Chloramphenicol] + CC1(C)S[C@@H]2[C@H](NC(=O)Cc3ccccc3)C(=O)N2[C@H]1C(=O)O [PenicillinG]	0.0719	0.0631	-0.0428	-0.0461	–	–	–	–
O=C(N[C@H](CO)[C@H](O)c1ccc([N+](=O)[O-])cc1)C(Cl)Cl [Chloramphenicol] + CC(=O)O[C@H]1C[C@@]2(C)[C@@H](C[C@@H](O)[C@H]3[C@@]4(C)CC[C@@H](O)[C@@H](C)[C@@H]4CC[C@@]32C)/C1=C(\CCC=C(C)C)C(=O)O [Fusidic acid]	0.074	0.0319	-0.0559	-0.103	–	–	–	–
O=C(N[C@H](CO)[C@H](O)c1ccc([N+](=O)[O-])cc1)C(Cl)Cl [Chloramphenicol] + CCC(C)C1C(=O)NC(=C)C(=O)NC(C(=O)NC(CSCC(C(=O)N1)NC(=O)/C(=C/C)/NC(=O)C(C(C)CC)N)C(=O)NC2C(SCC(NC(=O)CNC(=O)C3CCCN3C2=O)C(=O)NC(CCCCN)C(=O)NC4C(SCC(NC(=O)CNC(=O)C(NC(=O)C(NC(=O)C(NC(=O)CNC4=O)C)CC(C)C)CCSC)C(=O)NC(CC(=O)N)C(=O)NC(CCSC)C(=O)NC(CCCCN)C(=O)NC5C(SCC6C(=O)NC(C(=O)NC(CSC(C(C(=O)N6)NC(=O)C(NC5=O)C)C)C(=O)NC(CO)C(=O)NC(C(C)CC)C(=O)NC(CC7=CN=CN7)C(=O)NC(C(C)C)C(=O)NC(=C)C(=O)NC(CCCCN)C(=O)O)CC8=CN=CN8)C)C)C)CC(C)C [Nisin]	–	–	–	–	0.0397	-0.0704	0.0543	-0.102
O=C(N[C@H](CO)[C@H](O)c1ccc([N+](=O)[O-])cc1)C(Cl)Cl [Chloramphenicol] + CC[C@H]1OC(=O)[C@H](C)C(=O)[C@H](C)[C@@H](O[C@@H]2O[C@H](C)C[C@H](N(C)C)[C@H]2O)[C@](C)(OC)C[C@@H](C)C(=O)[C@H](C)[C@H]2N(CCCCn3cnc(-c4cccnc4)c3)C(=O)O[C@]12C [Telithromycin]	-0.0575	-0.104	-0.0946	-0.0437	–	–	–	–
O=C(N[C@H](CO)[C@H](O)c1ccc([N+](=O)[O-])cc1)C(Cl)Cl [Chloramphenicol] + CC[C@H]1OC(=O)[C@H](C)[C@@H](O[C@H]2C[C@@](C)(OC)[C@@H](O)[C@H](C)O2)[C@H](C)[C@@H](O[C@@H]2O[C@H](C)C[C@H](N(C)C)[C@H]2O)[C@](C)(O)C[C@@H](C)C(=O)[C@H](C)[C@@H](O)[C@]1(C)O [Erythromycin]	0.0488	0.0318	-0.103	0.0269	–	–	–	–
O=C(N[C@H](CO)[C@H](O)c1ccc([N+](=O)[O-])cc1)C(Cl)Cl [Chloramphenicol] + CC[C@H]1OC(=O)[C@H](C)[C@@H](O[C@H]2C[C@@](C)(OC)[C@@H](O)[C@H](C)O2)[C@H](C)[C@@H](O[C@@H]2O[C@H](C)C[C@H](N(C)C)[C@H]2O)[C@](C)(OC)C[C@@H](C)C(=O)[C@H](C)[C@@H](O)[C@]1(C)O [Clarithromycin]	-0.0459	-0.158	-0.129	0.0359	–	–	–	–
O=C(N[C@H](CO)[C@H](O)c1ccc([N+](=O)[O-])cc1)C(Cl)Cl [Chloramphenicol] + CN(C)[C@@H]1C(O)=C(C(N)=O)C(=O)[C@@]2(O)C(O)=C3C(=O)c4c(O)ccc(Cl)c4[C@@](C)(O)[C@H]3C[C@@H]12 [Clortetracycline]	-0.117	0.0518	-0.0412	-0.0404	–	–	–	–
O=C(N[C@H](CO)[C@H](O)c1ccc([N+](=O)[O-])cc1)C(Cl)Cl [Chloramphenicol] + CN[C@H](CC(C)C)C(=O)N[C@H]1C(=O)N[C@@H](CC(N)=O)C(=O)N[C@H]2C(=O)N[C@H]3C(=O)N[C@H](C(=O)N[C@H](C(=O)O)c4cc(O)cc(O)c4-c4cc3ccc4O)[C@H](O[C@H]3C[C@](C)(N)[C@@H](O)[C@H](C)O3)c3ccc(c(Cl)c3)Oc3cc2cc(c3O[C@@H]2O[C@H](CO)[C@@H](O)[C@H](O)[C@H]2O[C@H]2C[C@](C)(NCc3ccc(-c4ccc(Cl)cc4)cc3)[C@@H](O)[C@H](C)O2)Oc2ccc(cc2Cl)[C@H]1O [Oritavancin]	0.0647	0.0571	-0.0346	0.0499	–	–	–	–
O=C(N[C@H](CO)[C@H](O)c1ccc([N+](=O)[O-])cc1)C(Cl)Cl [Chloramphenicol] + CO[C@@H]1[C@@H](OC(N)=O)[C@@H](O)[C@H](Oc2ccc3c(O)c(NC(=O)c4ccc(O)c(CC=C(C)C)c4)c(=O)oc3c2C)OC1(C)C [Novobiocin]	0.0928	0.0712	0.0758	-0.111	–	–	–	–
O=C(N[C@H](CO)[C@H](O)c1ccc([N+](=O)[O-])cc1)C(Cl)Cl [Chloramphenicol] + CO[C@@]12[C@H](COC(N)=O)C3=C(C(=O)C(C)=C(N)C3=O)N1C[C@@H]1N[C@@H]12 [MitomycinC]	0.114	-0.0503	0.102	-0.0831	–	–	–	–
O=C(N[C@H](CO)[C@H](O)c1ccc([N+](=O)[O-])cc1)C(Cl)Cl [Chloramphenicol] + C[C@H]1c2cccc(O)c2C(=O)C2=C(O)[C@]3(O)C(=O)C(C(N)=O)=C(O)[C@@H](N(C)C)[C@@H]3[C@@H](O)[C@@H]21 [Doxycycline]	-0.0915	0.0395	0.0197	-0.06	–	–	–	–
O=C(N[C@H](CO)[C@H](O)c1ccc([N+](=O)[O-])cc1)C(Cl)Cl [Chloramphenicol] + Clc1ccc(COC(Cn2ccnc2)c2ccc(Cl)cc2Cl)c(Cl)c1 [Miconazole]	0.0615	0.0813	0.0868	0.0799	–	–	–	–
O=C(N[C@H](CO)[C@H](O)c1ccc([N+](=O)[O-])cc1)C(Cl)Cl [Chloramphenicol] + N[C@@H]1CONC1=O [CycloserineD]	0.0478	-0.168	-0.144	0.141	–	–	–	–
O=C(N[C@H](CO)[C@H](O)c1ccc([N+](=O)[O-])cc1)C(Cl)Cl [Chloramphenicol] + O=C(O)[C@H]1/C(=C/CO)O[C@@H]2CC(=O)N21 [Clavulanic]	0.0981	-0.265	0.202	-0.0693	–	–	–	–
O=C(N[C@H](CO)[C@H](O)c1ccc([N+](=O)[O-])cc1)C(Cl)Cl [Chloramphenicol] + Oc1cc(Cl)ccc1Oc1ccc(Cl)cc1Cl [Triclosan]	-0.0443	-0.0764	0.0302	0.0444	–	–	–	–
CC[C@H]1OC(=O)[C@H](C)[C@@H](O[C@H]2C[C@@](C)(OC)[C@@H](O)[C@H](C)O2)[C@H](C)[C@@H](O[C@@H]2O[C@H](C)C[C@H](N(C)C)[C@H]2O)[C@](C)(OC)C[C@@H](C)C(=O)[C@H](C)[C@@H](O)[C@]1(C)O [Clarithromycin] + CC1(C)S[C@@H]2[C@H](NC(=O)Cc3ccccc3)C(=O)N2[C@H]1C(=O)O [PenicillinG]	0.0431	-0.0458	-0.0938	-0.0413	–	–	–	–
CC[C@H]1OC(=O)[C@H](C)[C@@H](O[C@H]2C[C@@](C)(OC)[C@@H](O)[C@H](C)O2)[C@H](C)[C@@H](O[C@@H]2O[C@H](C)C[C@H](N(C)C)[C@H]2O)[C@](C)(OC)C[C@@H](C)C(=O)[C@H](C)[C@@H](O)[C@]1(C)O [Clarithromycin] + CC(=O)O[C@H]1C[C@@]2(C)[C@@H](C[C@@H](O)[C@H]3[C@@]4(C)CC[C@@H](O)[C@@H](C)[C@@H]4CC[C@@]32C)/C1=C(\CCC=C(C)C)C(=O)O [Fusidic acid]	-0.059	0.0257	0.0229	-0.0728	–	–	–	–
CC[C@H]1OC(=O)[C@H](C)[C@@H](O[C@H]2C[C@@](C)(OC)[C@@H](O)[C@H](C)O2)[C@H](C)[C@@H](O[C@@H]2O[C@H](C)C[C@H](N(C)C)[C@H]2O)[C@](C)(OC)C[C@@H](C)C(=O)[C@H](C)[C@@H](O)[C@]1(C)O [Clarithromycin] + CCCCCCCCCC(=O)N[C@@H]1[C@H]([C@@H]([C@H](O[C@H]1OC2=C3C=C4C=C2OC5=C(C=C(C=C5)[C@H]([C@H]6C(=O)N[C@@H](C7=C(C(=CC(=C7)O)OC8[C@H]([C@H]([C@@H]([C@H](O8)CO)O)O)O)C9=C(C=CC(=C9)[C@H](C(=O)N6)NC(=O)[C@@H]4NC(=O)[C@@H]1C2=CC(=CC(=C2)OC2=C(C=CC(=C2)[C@H](C(=O)N[C@H](CC2=CC(=C(O3)C=C2)Cl)C(=O)N1)N)O)O)O)C(=O)O)O[C@H]1[C@@H]([C@H]([C@@H]([C@H](O1)CO)O)O)NC(=O)C)Cl)CO)O)O [Teicoplanin]	–	–	–	–	0.0401	0.099	0.173	-0.0509
CC[C@H]1OC(=O)[C@H](C)[C@@H](O[C@H]2C[C@@](C)(OC)[C@@H](O)[C@H](C)O2)[C@H](C)[C@@H](O[C@@H]2O[C@H](C)C[C@H](N(C)C)[C@H]2O)[C@](C)(OC)C[C@@H](C)C(=O)[C@H](C)[C@@H](O)[C@]1(C)O [Clarithromycin] + CCC[C@@H]1C[C@@H](C(=O)N[C@@H]([C@H]2O[C@H](SC)[C@H](O)[C@@H](O)[C@H]2O)[C@H](C)Cl)N(C)C1 [Clindamycin]	0.0458	-0.0458	-0.066	0.0678	–	–	–	–
